Each structure is given as a SMILES string. Calls of active or inactive are those of the source. The calls are words filed in the database; no cut-off is given here. Residues, ends and D or L forms follow the SMILES beside them. *: point of attachment. Cbz = O=C(OCc1ccccc1)*

Test [1] deals with A2780. Kind of test: Induction of apoptosis in cisplatin-resistant human A2780 cells assessed as decrease in phosphorylated Akt level at 2 uM after 12 hrs by immunoblot analysis. Type of test: functional, cell-based.
The test system of test [2] is A2780. Kind of test: Induction of apoptosis in cisplatin-resistant human A2780 cells assessed as inhibition of PTEN degradation at 2 uM by immunoblot analysis. Type of test: functional, cell-based.
Test [3] concerns A2780. Description: Induction of apoptosis in cisplatin-resistant human A2780 cells assessed as accumulation at G2/M phase at 2 uM after 3 hrs by flow cytometry relative to control. The format is functional.
Test [4] deals with A2780. Kind of test: Reversal of induction of apoptosis in cisplatin-resistant human A2780 cells assessed as inhibition of cleaved caspase-3 by immunoblot analysis in presence of PTEN-specific siRNA. Type of test: functional, cell-based.
The subject of test [5] is A2780. Description: Induction of apoptosis in cisplatin-resistant human A2780 cells assessed as decrease in pERK1/2 level at 2 uM after 24 hrs by immunoblot analysis. Type of test: functional, cell-based.
Test [6] relates to A2780. Kind of test: Cell viability of human cisplatin-sensitive human A2780 cells after 24 hrs by MTT assay. The format is functional, cell-based. The settings on record: A2780, 24 h.
In the next test the test system is CHO. Kind of test: Cell viability of CHO cells after 24 hrs by MTT assay. Type of test: functional, cell-based. The settings on record: Cricetulus griseus.
In test [7] the test system is A2780. Kind of test: Induction of apoptosis in cisplatin-resistant human A2780 cells assessed as accumulation at G2/M phase at 2 uM after 6 hrs by flow cytometry relative to control. The format is functional.
Test [8] has as its system A2780. Kind of test: Induction of apoptosis in cisplatin-resistant human A2780 cells assessed as accumulation at G2/M phase at 2 uM after 12 hrs by flow cytometry relative to control. Type of test: functional.
Test [9] relates to A2780. Description: Induction of apoptosis in cisplatin-resistant human A2780 cells assessed as enhancement of p53 level at 2 uM by immunoblot analysis. Type of test: functional, cell-based.
Test [10] has as its system A2780. Kind of test: Induction of apoptosis in cisplatin-resistant human A2780 cells assessed as enhancement of p21 level at 2 uM by immunoblot analysis. The format is functional, cell-based.
Test [11] deals with A2780. Kind of test: Induction of apoptosis in cisplatin-resistant human A2780 cells assessed as enhancement of p27 level at 2 uM by immunoblot analysis. Type of test: functional, cell-based.
The test system of test [12] is A2780. Kind of test: Induction of apoptosis in cisplatin-resistant human A2780 cells assessed as decrease in MDM2 level at 2 uM by immunoblot analysis. The format is functional, cell-based. The conditions noted are these: TDE = time-dependent effect.
The subject of test [13] is A2780. Kind of test: Induction of apoptosis in cisplatin-resistant human A2780 cells assessed as decrease in CycB1 expression at 2 uM by immunoblot analysis. The format is functional, cell-based. The settings on record: TDE = time-dependent effect.
Test [14] concerns A2780. Kind of test: Induction of apoptosis in cisplatin-resistant human A2780 cells assessed as decrease in CycA expression at 2 uM by immunoblot analysis. The format is functional, cell-based. The settings on record: TDE = time-dependent effect.
Test [15] relates to A2780. Description: Induction of apoptosis in cisplatin-resistant human A2780 cells assessed as decrease in CycD1 expression at 2 uM by immunoblot analysis. Type of test: functional, cell-based. The settings on record: TDE = time-dependent effect.
Test [16] relates to A2780. Kind of test: Induction of apoptosis in cisplatin-resistant human A2780 cells assessed as decrease in Cdc2 expression at 2 uM by immunoblot analysis. Type of test: functional, cell-based. The settings on record: TDE = time-dependent effect.
Test [17] concerns A2780. Kind of test: Induction of apoptosis in cisplatin-resistant human A2780 cells assessed as decrease in Cdc25C expression at 2 uM by immunoblot analysis. Type of test: functional, cell-based. The conditions noted are these: TDE = time-dependent effect.
The subject of test [18] is A2780. Kind of test: Induction of apoptosis in cisplatin-resistant human A2780 cells assessed as change in Wee1 level at 2 uM by immunoblot analysis. Type of test: functional, cell-based.
For test [19], the system named is A2780. Description: Induction of apoptosis in cisplatin-resistant human A2780 cells assessed as accumulation at sub-G1 phase at 2 uM after 24 hrs by flow cytometry relative to control. The format is functional.
In test [20] the test system is A2780. Description: Induction of apoptosis in cisplatin-resistant human A2780 cells assessed as activation of caspase cascade at 2 uM after 6 to 24 hrs by Western blotting. Type of test: functional, cell-based.
Test [21] has as its system A2780. Kind of test: Reversal of induction of apoptosis in cisplatin-resistant human A2780 cells assessed as accumulation at sub-G1 phase at 2 uM after 24 hrs by flow cytometry in presence of z-VAD-fmk. Type of test: functional, cell-based.
Test [22] relates to A2780. Kind of test: Induction of apoptosis in cisplatin-resistant human A2780 cells assessed as increase in FasL receptor expression at 2 uM by immunoblot analysis. Type of test: functional, cell-based. The settings on record: TDE = time-dependent effect.
The subject of test [23] is A2780. Kind of test: Induction of apoptosis in cisplatin-resistant human A2780 cells assessed as increase in Fas/CD95 receptor expression at 2 uM after 6 to 24 hrs by immunoblot analysis. Type of test: functional, cell-based.
Test [24] relates to A2780. Description: Induction of apoptosis in cisplatin-resistant human A2780 cells assessed as increase in TNFR1 expression at 2 uM after 6 to 24 hrs by immunoblot analysis. Type of test: functional, cell-based.
Test [25] concerns A2780. Description: Induction of apoptosis in cisplatin-resistant human A2780 cells assessed as inhibition of pPTEN degradation at 2 uM by immunoblot analysis. The format is functional, cell-based.
Test [26] deals with A2780. Description: Reversal of induction of apoptosis in cisplatin-resistant human A2780 cells assessed as suppression of PTEN by immunoblot analysis in presence of PTEN-specific siRNA. Type of test: functional, cell-based.
Test [27] deals with A2780. Kind of test: Reversal of induction of apoptosis in cisplatin-resistant human A2780 cells assessed as increase of Akt phosphorylation by immunoblot analysis in presence of PTEN-specific siRNA. Type of test: functional, cell-based.
Test [28] concerns A2780. Kind of test: Reversal of induction of apoptosis in cisplatin-resistant human A2780 cells assessed as decrease of p53 level by immunoblot analysis in presence of PTEN-specific siRNA. The format is functional, cell-based.
Test [29] has as its system A2780. Description: Reversal of induction of apoptosis in cisplatin-resistant human A2780 cells assessed as decrease of p21 level by immunoblot analysis in presence of PTEN-specific siRNA. Type of test: functional, cell-based.
Test [30] concerns A2780. Description: Reversal of induction of apoptosis in cisplatin-resistant human A2780 cells assessed as inhibition of cleaved caspase-7 by immunoblot analysis in presence of PTEN-specific siRNA. The format is functional, cell-based.
Test [31] concerns A2780. Kind of test: Reversal of induction of apoptosis in cisplatin-resistant human A2780 cells assessed as inhibition of cleaved PARP by immunoblot analysis in presence of PTEN-specific siRNA. Type of test: functional, cell-based.
For test [32], the system named is A2780. Kind of test: Cell viability of cisplatin-resistant human A2780 cells overexpressing PTEN at 2 uM after 24 hrs by MTT assay. The format is functional, cell-based.
Test [33] relates to A2780. Description: Induction of apoptosis in cisplatin-resistant human A2780 cells overexpressing PTEN assessed as inhibition of pAkt by Western blotting. Type of test: functional, cell-based.
Test [34] relates to A2780. Kind of test: Induction of apoptosis in cisplatin-resistant human A2780 cells overexpressing PTEN assessed as enhancement of p53 by Western blotting. The format is functional, cell-based.
For test [35], the system named is A2780. Description: Induction of apoptosis in cisplatin-resistant human A2780 cells overexpressing PTEN assessed as enhancement of p21 by Western blotting. Type of test: functional, cell-based.
For test [36], the system named is A2780. Kind of test: Induction of apoptosis in cisplatin-resistant human A2780 cells overexpressing PTEN assessed as enhancement of cleaved caspase-3 by Western blotting. Type of test: functional, cell-based.
For test [37], the system named is A2780. Kind of test: Induction of apoptosis in cisplatin-resistant human A2780 cells overexpressing PTEN assessed as enhancement of cleaved PARP by Western blotting. The format is functional, cell-based.
Test [38] deals with A2780. Kind of test: Induction of apoptosis in cisplatin-resistant human A2780 cells assessed as enhancement of p53 phosphorylation at 2 uM by immunoblot analysis. Type of test: functional, cell-based.
The test system of test [39] is A2780. Description: Induction of apoptosis in cisplatin-resistant human A2780 cells assessed as decrease in pERK1/2 level at 2 uM after 48 hrs by immunoblot analysis. Type of test: functional, cell-based.
Test [40] concerns A2780. Description: Cell viability of cisplatin-resistant human A2780 cells after 24 hrs by MTT assay. Type of test: functional, cell-based. The settings on record: A2780, 24 h.

For the compound `O=c1cc(N2CCOCC2)oc2c(-c3ccccc3)cccc12`, the outcome in the test with A2780 [1] was Active.
With `CC(C)C[C@@H](C=O)NC(=O)[C@H](CC(C)C)NC(=O)[C@H](CC(C)C)NC(=O)OCc1ccccc1` (Cbz-Leu-Leu-Leu-aldehyde), in the test with A2780 [2], the result was Active.
In the case of `O=C1/C(=C/c2ccccc2F)CNC/C1=C\c1ccccc1F`, the Activity with A2780 [3] is 27.3%; in the test with A2780 [7], 36.8%; with A2780 [8], 57.5%; in the test with A2780 [12], “tde”; in the test on A2780 [13], “tde”; in the test on A2780 [14], “tde”. The Activity result in the test on A2780 [15] was “tde”; in the test with A2780 [16], “tde”; in the test on A2780 [17] it was “tde”; with A2780 [19], 35.3%; in the test on A2780 [22], “tde”. Also, the outcome in the test on A2780 [4], with A2780 [1], with A2780 [5], with A2780 [9], in the test with A2780 [10] and in the test with A2780 [20] was Active. The outcome in the test on A2780 [21], in the test with A2780 [2], in the test with A2780 [25], in the test with A2780 [26], in the test on A2780 [27] and in the test on A2780 [28] was Active. Also, the result with A2780 [29], in the test on A2780 [30], in the test on A2780 [31], with A2780 [32], with A2780 [33] and in the test with A2780 [34] was Active. Moreover, the outcome in the test with A2780 [35], with A2780 [36], with A2780 [37], in the test with A2780 [38] and in the test on A2780 [39] was Active. Also, the IC50 was found to be 0.5 µM in the test with A2780 [6], 4.6 µM in the test with CHO and 0.65 µM in the test with A2780 [40]. Besides, the result with A2780 [11], in the test with A2780 [18], with A2780 [23] and in the test with A2780 [24] was inactive.

These data come from ChEMBL document CHEMBL1156497, “EF24 induces G2/M arrest and apoptosis in cisplatin-resistant human ovarian cancer cells by increasing PTEN expression” (J Biol Chem, 2007).
